# Patent publication US20090018111A1, “Novel Antimicrobial Medicament” (priority 2004, published 2009)
# Where two headings read alike, the source gives them in different places.
# Tests used:
# Experiment in all cases: Sensitivity test (agar dilution), clinical isolate
# [1] = test system: S. marcescens 7138; assay type: cell-based, Serratia marcescens
# Procedure: (§1) In addition, the antibacterial activities were tested against strains which are comparatively less sensitive to β-lactam compounds, namely clinically isolated 13 strains of Acinetobacter calcoaceticus and Acinetobacter lwoffi, clinically isolated 11 strains of Serratia marcescens, clinically isolated 12 strains of Burkholderia cepacia, and clinically isolated 15 strains of Pseudomonas aeruginosa.
# (§2) According to the standard method of Japan Chemotherapeutic Society (Chemotherapy, vol. […], p 76-79 (1981)) the test was carried out using the agar dilution method. After dissolving test samples in distilled water, agar medium containing the test samples was prepared in such a manner that the final concentration became twice serial dilution by pouring serially diluted combination drug solution or a single drug solution into agar medium. As agar medium was used Mueller Hinton Agar medium (MHA). Then, each strain was cultivated over night at 37° C. in an incubator and suspended in buffered saline solution with gelatin (BSG) in the concentration of about 10^6 CFU/ml. The suspension (about 5 μl) containing test strains was inoculated to the medium containing the test samples by Micro Planter.
# (§3) Each drug was weighed, and dissolved in distilled water to give a test sample. When the drugs are used in combination, two kinds of solution containing each drug were mixed so as to be various ratio of concentration to give a mixed solution. When the sample is subjected to sensitivity test, this mixed solution was diluted by twice serial dilution method.
# (§4) Furthermore, when the drug is solely used, each test sample was used as it is, and diluted by twice serial dilution method from the maximum concentration to the minimum concentration.
# [2] = test system: S. marcescens 14425; assay type: cell-based, Serratia marcescens
# Procedure: as §1, §2, §3, §4
# [3] = test system: S. marcescens 7155; assay type: cell-based, Serratia marcescens
# Procedure: as §1, §2, §3, §4
# [4] = test system: S. marcescens 1928513; assay type: cell-based, Serratia marcescens
# Procedure: as §1, §2, §3, §4
# [5] = test system: S. marcescens 2054522; assay type: cell-based, Serratia marcescens
# Procedure: as §1, §2, §3, §4
# [6] = test system: S. marcescens 14424; assay type: cell-based, Serratia marcescens
# Procedure: as §1, §2, §3, §4
# [7] = test system: S. marcescens 14689; assay type: cell-based, Serratia marcescens
# Procedure: as §1, §2, §3, §4
# [8] = test system: S. marcescens 14981; assay type: cell-based, Serratia marcescens
# Procedure: as §1, §2, §3, §4
# [9] = test system: S. marcescens 1944950; assay type: cell-based, Serratia marcescens
# Procedure: as §1, §2, §3, §4
# [10] = test system: S. marcescens 14991; assay type: cell-based, Serratia marcescens
# Procedure: as §1, §2, §3, §4
# [11] = test system: S. marcescens 2012884; assay type: cell-based, Serratia marcescens
# Procedure: as §1, §2, §3, §4
# [12] = test system: P. aeruginosa 15040; assay type: cell-based, Pseudomonas aeruginosa
# Procedure: as §1, §2, §3, §4
# [13] = test system: P. aeruginosa 12790; assay type: cell-based, Pseudomonas aeruginosa
# Procedure: as §1, §2, §3, §4
# [14] = test system: P. aeruginosa 12789; assay type: cell-based, Pseudomonas aeruginosa
# Procedure: as §1, §2, §3, §4
# [15] = test system: B. cepacia 14300; assay type: cell-based, Burkholderia cepacia
# Procedure: as §1, §2, §3, §4
smiles,measurement,setting,value
"C[C@@H](O)[C@H]1C(=O)N2C(C(=O)O)=C(S[C@@H]3CN[C@H](C(=O)N(C)C)C3)[C@H](C)[C@H]12 [MEPM, meropenem]",MIC,"[1]; Serratia marcescens, 7138, Concomitant (ME:SM = 1:1)",2 µg/mL
same,MIC,"[1]; Serratia marcescens, 7138, Concomitant (ME:SM = 1:2)",1 µg/mL
same,MIC,"[1]; Serratia marcescens, 7138, Concomitant (ME:SM = 1:4)",0.5 µg/mL
same,MIC,"[1]; Serratia marcescens, 7138, Concomitant (ME:SM = 2:1)",2 µg/mL
same,MIC,"[1]; Serratia marcescens, 7138, alone",2 µg/mL
same,MIC,"[2]; Serratia marcescens, 14425, Concomitant (ME:SM = 1:1)",0.031 µg/mL
same,MIC,"[2]; Serratia marcescens, 14425, Concomitant (ME:SM = 1:2)",0.031 µg/mL
same,MIC,"[2]; Serratia marcescens, 14425, Concomitant (ME:SM = 1:4)",0.031 µg/mL
same,MIC,"[2]; Serratia marcescens, 14425, Concomitant (ME:SM = 2:1)",0.031 µg/mL
same,MIC,"[2]; Serratia marcescens, 14425, alone",0.031 µg/mL
same,MIC,"[3]; Serratia marcescens, 7155, Concomitant (ME:SM = 1:1)",2 µg/mL
same,MIC,"[3]; Serratia marcescens, 7155, Concomitant (ME:SM = 1:2)",1 µg/mL
same,MIC,"[3]; Serratia marcescens, 7155, Concomitant (ME:SM = 1:4)",0.5 µg/mL
same,MIC,"[3]; Serratia marcescens, 7155, Concomitant (ME:SM = 2:1)",2 µg/mL
same,MIC,"[3]; Serratia marcescens, 7155, alone",2 µg/mL
same,MIC,"[4]; Serratia marcescens, 1928513, Concomitant (ME:SM = 1:1)",1 µg/mL
same,MIC,"[4]; Serratia marcescens, 1928513, Concomitant (ME:SM = 1:2)",0.5 µg/mL
same,MIC,"[4]; Serratia marcescens, 1928513, Concomitant (ME:SM = 1:4)",0.5 µg/mL
same,MIC,"[4]; Serratia marcescens, 1928513, Concomitant (ME:SM = 2:1)",1 µg/mL
same,MIC,"[4]; Serratia marcescens, 1928513, alone",1 µg/mL
same,MIC,"[5]; Serratia marcescens, 2054522, Concomitant (ME:SM = 1:1)",1 µg/mL
same,MIC,"[5]; Serratia marcescens, 2054522, Concomitant (ME:SM = 1:2)",0.5 µg/mL
same,MIC,"[5]; Serratia marcescens, 2054522, Concomitant (ME:SM = 1:4)",0.5 µg/mL
same,MIC,"[5]; Serratia marcescens, 2054522, Concomitant (ME:SM = 2:1)",1 µg/mL
same,MIC,"[5]; Serratia marcescens, 2054522, alone",1 µg/mL
same,MIC,"[6]; Serratia marcescens, 14424, Concomitant (ME:SM = 1:1)",8 µg/mL
same,MIC,"[6]; Serratia marcescens, 14424, Concomitant (ME:SM = 1:2)",2 µg/mL
same,MIC,"[6]; Serratia marcescens, 14424, Concomitant (ME:SM = 1:4)",2 µg/mL
same,MIC,"[6]; Serratia marcescens, 14424, Concomitant (ME:SM = 2:1)",4 µg/mL
same,MIC,"[6]; Serratia marcescens, 14424, alone",4 µg/mL
same,MIC,"[7]; Serratia marcescens, 14689, Concomitant (ME:SM = 1:1)",2 µg/mL
same,MIC,"[7]; Serratia marcescens, 14689, Concomitant (ME:SM = 1:2)",2 µg/mL
same,MIC,"[7]; Serratia marcescens, 14689, Concomitant (ME:SM = 1:4)",2 µg/mL
same,MIC,"[7]; Serratia marcescens, 14689, Concomitant (ME:SM = 2:1)",4 µg/mL
same,MIC,"[7]; Serratia marcescens, 14689, alone",4 µg/mL
same,MIC,"[8]; Serratia marcescens, 14981, Concomitant (ME:SM = 1:1)",1 µg/mL
same,MIC,"[8]; Serratia marcescens, 14981, Concomitant (ME:SM = 1:2)",0.5 µg/mL
same,MIC,"[8]; Serratia marcescens, 14981, Concomitant (ME:SM = 1:4)",0.5 µg/mL
same,MIC,"[8]; Serratia marcescens, 14981, Concomitant (ME:SM = 2:1)",1 µg/mL
same,MIC,"[8]; Serratia marcescens, 14981, alone",1 µg/mL
same,MIC,"[9]; Serratia marcescens, 1944950, Concomitant (ME:SM = 1:1)",8 µg/mL
same,MIC,"[9]; Serratia marcescens, 1944950, Concomitant (ME:SM = 1:2)",4 µg/mL
same,MIC,"[9]; Serratia marcescens, 1944950, Concomitant (ME:SM = 1:4)",4 µg/mL
same,MIC,"[9]; Serratia marcescens, 1944950, Concomitant (ME:SM = 2:1)",8 µg/mL
same,MIC,"[9]; Serratia marcescens, 1944950, alone",8 µg/mL
same,MIC,"[10]; Serratia marcescens, 14991, Concomitant (ME:SM = 1:1)",2 µg/mL
same,MIC,"[10]; Serratia marcescens, 14991, Concomitant (ME:SM = 1:2)",1 µg/mL
same,MIC,"[10]; Serratia marcescens, 14991, Concomitant (ME:SM = 1:4)",1 µg/mL
same,MIC,"[10]; Serratia marcescens, 14991, Concomitant (ME:SM = 2:1)",1 µg/mL
same,MIC,"[10]; Serratia marcescens, 14991, alone",1 µg/mL
same,MIC,"[11]; Serratia marcescens, 2012884, Concomitant (ME:SM = 1:1)",2 µg/mL
same,MIC,"[11]; Serratia marcescens, 2012884, Concomitant (ME:SM = 1:2)",2 µg/mL
same,MIC,"[11]; Serratia marcescens, 2012884, Concomitant (ME:SM = 1:4)",1 µg/mL
same,MIC,"[11]; Serratia marcescens, 2012884, Concomitant (ME:SM = 2:1)",4 µg/mL
same,MIC,"[11]; Serratia marcescens, 2012884, alone",4 µg/mL
same,MIC,"[12]; Pseudomonas aeruginosa, 15040, Concomitant (ME:SM = 1:1)",4 µg/mL
same,MIC,"[12]; Pseudomonas aeruginosa, 15040, Concomitant (ME:SM = 1:2)",2 µg/mL
same,MIC,"[12]; Pseudomonas aeruginosa, 15040, Concomitant (ME:SM = 1:4)",2 µg/mL
same,MIC,"[12]; Pseudomonas aeruginosa, 15040, Concomitant (ME:SM = 2:1)",4 µg/mL
same,MIC,"[12]; Pseudomonas aeruginosa, 15040, alone",4 µg/mL
same,MIC,"[13]; Pseudomonas aeruginosa, 12790",0.125 µg/mL
same,MIC,"[13]; Pseudomonas aeruginosa, 12790, Concomitant (ME:SM = 1:1), read-out: MIC",0.063 µg/mL
same,MIC,"[13]; Pseudomonas aeruginosa, 12790, Concomitant (ME:SM = 1:4), read-out: MIC",0.063 µg/mL
same,MIC,"[13]; Pseudomonas aeruginosa, 12790, Concomitant (ME:SM = 2:1), read-out: MIC",0.031 µg/mL
same,MIC,"[13]; Pseudomonas aeruginosa, 12790, alone, read-out: MIC",0.063 µg/mL
same,MIC,"[14]; Pseudomonas aeruginosa, 12789, Concomitant (ME:SM = 1:1)",0.5 µg/mL
same,MIC,"[14]; Pseudomonas aeruginosa, 12789, Concomitant (ME:SM = 1:2)",0.5 µg/mL
same,MIC,"[14]; Pseudomonas aeruginosa, 12789, Concomitant (ME:SM = 1:4)",0.5 µg/mL
same,MIC,"[14]; Pseudomonas aeruginosa, 12789, Concomitant (ME:SM = 2:1)",0.5 µg/mL
same,MIC,"[14]; Pseudomonas aeruginosa, 12789, alone",0.5 µg/mL
same,MIC,"[15]; Burkholderia cepacia, 14300, Concomitant (ME:SM = 1:1)",0.5 µg/mL
same,MIC,"[15]; Burkholderia cepacia, 14300, Concomitant (ME:SM = 1:2)",0.5 µg/mL
same,MIC,"[15]; Burkholderia cepacia, 14300, Concomitant (ME:SM = 1:4)",0.25 µg/mL
same,MIC,"[15]; Burkholderia cepacia, 14300, Concomitant (ME:SM = 2:1)",0.5 µg/mL
same,MIC,"[15]; Burkholderia cepacia, 14300, alone",0.5 µg/mL
